Measurements reported in PMC10745882, “Investigation of Drug-Interaction Potential for Arthritis Dietary Supplements: Chondroitin Sulfate, Glucosamine, and Methylsulfonylmethane” (Molecules, 2023).
Where two headings read alike, the source gives them in different places.

Key:
[1] = test system: CYPs; conditions: drugs used for OA; ref as in Refs of Table 4, 17-36; cited from earlier work
[2] = test system: CYP2C9; design: method as in PMID 34821124, PMID 29488228; conditions: previous studies; cited from earlier work
[3] = design: method as in PMID 16942821, PMID 37489348, PMID 31331587; conditions: typical doses as monotherapy; cited from earlier work
[4] = interaction case, co-administration of CS and GCS with warfarin; cited from earlier work
[5] = design: method as in doi:10.4172/2155-9600.1000748, PMID 16168682, PMID 19912983; conditions: cited from earlier work
[6] = test system: seven CYP isozymes (CYP1A2, CYP2A6, CYP2B6, CYP2C9, CYP2C19, CYP2D6, CYP3A4); experiment: CYP inhibition assay in human liver microsomes, statements on all tested isozymes; type: in vitro ADME
Procedure: (§1) For the experimental method, the reference method was used. Briefly, incubation mixtures were composed of 0.5 mg/mL human liver microsomes; varying concentrations of CS in DW (0.1, 0.3, 1, 3, 10, 30, 100, and 200 µM) or MSM in DW (0.1, 0.3, 1, 3, 10, 30, 100, 300, and 1000 µM) or GCS in DMSO (0.1, 0.3, 1, 3, 10, 30, 100, 300, and 1000 µM); a substrate mixture in DMSO (40 µM phenacetin for CYP1A2; 2.5 µM coumarin for CYP2A6; 80 µM bupropion for CYP2B6; 10 µM diclofenac for CYP2C9; 80 µM [±]-mephenytoin for CYP2C19; 5 µM dextromethorphan for CYP2D6; 2.5 µM midazolam and 30 µM testosterone for CYP3A4); and an NADPH generating system (NGS; 0.1 M glucose-6-phosphate, 10 mg/mL β-NADP^+, and 1 U/mL glucose-6-phosphate dehydrogenase) in a total volume of 200 µL potassium phosphate buffer (0.1 M, pH 7.4). The reaction mixture, excluding NGS, underwent pre-incubation at 37 °C for 5 min, followed by further incubation with NGS for 30 min in a water bath. Well-established selective CYP inhibitors were employed as positive controls (40 µM ketoconazole for CYP3A4, 50 µM furafyllin for CYP1A2, 10 µM quinidine for CYP2D6, 125 µM ticlopidine for CYP2C19 and CYP2B6, 10 µM 8-methoxsalen for CYP2A6, and 10 µM sulfaphenazole for CYP2C9). Post incubation, the reaction was halted by adding 50 µL ice-cold 1% formic acid acetonitrile. After centrifugation at 13,200 rpm for 5 min, the supernatant was collected from the sample and subjected to analysis via an LC-MS/MS system. All experiments were performed in triplicate.
For the experimental method, the reference method was used. The LC-MS/MS system utilized in this study consisted of an Agilent 1260 binary pump HPLC system coupled with the Agilent 6460 Triple Quadrupole mass spectrometer (Agilent Technologies, Santa Clara, CA, USA), featuring an electrospray ionization source. Chromatographic separation was achieved using a Fortis C8 column (2.1 × 100 mm, 5.0 µm; Fortis Technologies Ltd., Neston, UK). The HPLC mobile phases comprised (A) 0.1% formic acid and (B) 0.1% formic acid in 90% acetonitrile. […]

[7] = target: T1, CYP3A4(M) (Homo sapiens, UniProt P08684); experiment: CYP inhibition assay in human liver microsomes (LC-MS/MS cocktail), midazolam to 1-OH-midazolam; type: in vitro ADME
T1 construct: Pooled human liver microsomes were purchased from BD Gentest; tissue BD Gentest; host or cells: pooled human liver microsomes
T1 sequence (P08684 whole entry): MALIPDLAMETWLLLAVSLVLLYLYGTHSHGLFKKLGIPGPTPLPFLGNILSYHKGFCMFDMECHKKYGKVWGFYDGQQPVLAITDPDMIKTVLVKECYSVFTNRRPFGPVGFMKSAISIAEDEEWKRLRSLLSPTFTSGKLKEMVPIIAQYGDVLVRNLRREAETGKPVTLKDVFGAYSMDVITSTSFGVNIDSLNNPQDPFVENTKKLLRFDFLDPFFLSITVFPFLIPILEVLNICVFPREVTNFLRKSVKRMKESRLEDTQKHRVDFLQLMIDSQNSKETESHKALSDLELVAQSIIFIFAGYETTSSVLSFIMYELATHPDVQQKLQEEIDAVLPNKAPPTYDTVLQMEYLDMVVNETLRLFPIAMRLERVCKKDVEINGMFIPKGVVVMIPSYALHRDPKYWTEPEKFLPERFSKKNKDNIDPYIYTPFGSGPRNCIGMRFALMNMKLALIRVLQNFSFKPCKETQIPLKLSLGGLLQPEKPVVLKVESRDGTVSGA
Procedure: For the experimental method, the reference method was used. […] The reaction mixture, excluding NGS, underwent pre-incubation at 37 °C for 5 min, followed by further incubation with NGS for 30 min in a water bath. […] Post incubation, the reaction was halted by adding 50 µL ice-cold 1% formic acid acetonitrile. After centrifugation at 13,200 rpm for 5 min, the supernatant was collected from the sample and subjected to analysis via an LC-MS/MS system. All experiments were performed in triplicate.
For the experimental method, the reference method was used. […] The HPLC mobile phases comprised (A) 0.1% formic acid and (B) 0.1% formic acid in 90% acetonitrile. […] The total run time was 11.0 min, and the injection volume was 5 µL. Mass detection was conducted in the positive ion mode using multiple reaction monitoring (MRM). Specific MRM transitions for each analyte are detailed in Table S4.

[8] = target: T2, CYP2D6 (Homo sapiens, UniProt P10635); design: method as in PMID 34821124, PMID 29488228; conditions: previous studies; cited from earlier work
T2 construct: Pooled human liver microsomes were purchased from BD Gentest; tissue BD Gentest; host or cells: pooled human liver microsomes
T2 sequence (P10635 whole entry): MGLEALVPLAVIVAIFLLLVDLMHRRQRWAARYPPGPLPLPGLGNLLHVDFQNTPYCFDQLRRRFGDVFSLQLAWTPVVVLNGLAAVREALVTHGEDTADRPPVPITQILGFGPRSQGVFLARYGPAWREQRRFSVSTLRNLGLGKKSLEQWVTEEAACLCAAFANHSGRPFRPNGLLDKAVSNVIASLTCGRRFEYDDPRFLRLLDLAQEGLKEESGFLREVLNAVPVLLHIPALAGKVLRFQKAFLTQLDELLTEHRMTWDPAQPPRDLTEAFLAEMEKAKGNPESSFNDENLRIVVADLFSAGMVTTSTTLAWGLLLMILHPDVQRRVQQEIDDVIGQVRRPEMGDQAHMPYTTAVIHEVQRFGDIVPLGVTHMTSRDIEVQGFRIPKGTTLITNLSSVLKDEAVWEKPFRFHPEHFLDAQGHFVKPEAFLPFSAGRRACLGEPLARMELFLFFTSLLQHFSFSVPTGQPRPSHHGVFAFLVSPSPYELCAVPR

[9] = test system: CYPs; design: method as in PMID 33096940; conditions: in vivo mice, after the administration of MSM; cited from earlier work
[10] = target: T3, CYP3A4(T) (Homo sapiens, UniProt P08684); experiment: CYP inhibition assay in human liver microsomes (LC-MS/MS cocktail), testosterone to 6-β-OH-Testosterone; type: in vitro ADME
T3 construct: Pooled human liver microsomes were purchased from BD Gentest; tissue BD Gentest; host or cells: pooled human liver microsomes
T3 sequence (P08684 whole entry): as the sequence (P08684 whole entry) above
Procedure: as §1
For the experimental method, the reference method was used. The LC-MS/MS system utilized in this study consisted of an Agilent 1260 binary pump HPLC system coupled with the Agilent 6460 Triple Quadrupole mass spectrometer (Agilent Technologies, Santa Clara, CA, USA), featuring an electrospray ionization source. Chromatographic separation was achieved using a Fortis C8 column (2.1 × 100 mm, 5.0 µm; Fortis Technologies Ltd., Neston, UK). The HPLC mobile phases comprised (A) 0.1% formic acid and (B) 0.1% formic acid in 90% acetonitrile. A gradient elution method was employed with an initial solvent B concentration of 15% and a flow rate of 0.25 mL/min. […] The total run time was 11.0 min, and the injection volume was 5 µL. Mass detection was conducted in the positive ion mode using multiple reaction monitoring (MRM). Specific MRM transitions for each analyte are detailed in Table S4.

O=C(O)Cc1ccccc1Nc1c(Cl)cccc1Cl [Diclofenac]
Metabolism-Associated CYPs [1]: CYP2C8, CYP2C9 (major), CYP2C18, CYP2C19, CYP2B6, CYP3A4

Chondroitin sulfate [CS]
inhibitory effects on CYP2C9 [2]: no inhibitory effects
adverse effects in clinical trials [3]: do not exhibit significant adverse effects
INR on co-administration with warfarin [4]: elevated INR
maximum plasma concentrations ([5]; common daily dose 1200 mg/day): approximately 70 µM
inhibitory effects on CYP1A2, CYP2A6, CYP2B6, CYP2C9, CYP2C19, CYP2D6, and CYP3A4 [6]: no inhibitory effects
Remaining Activities (% of Control, n = 3) ([7]; test substance 0.1 μM): 97.6 ± 3.8 % of Control
Remaining Activities (% of Control, n = 3) ([7]; test substance 0.3 μM): 99.1 ± 3.1 % of Control
Remaining Activities (% of Control, n = 3) ([7]; test substance 1 μM): 91.2 ± 10.6 % of Control
Remaining Activities (% of Control, n = 3) ([7]; test substance 3 μM): 87.9 ± 27.9 % of Control
Remaining Activities (% of Control, n = 3) ([7]; test substance 10 μM): 101.4 ± 4.9 % of Control
Remaining Activities (% of Control, n = 3) ([7]; test substance 30 μM): 106.6 ± 5 % of Control
Remaining Activities (% of Control, n = 3) ([7]; test substance 100 μM): 113.6 ± 8.4 % of Control
Remaining Activities (% of Control, n = 3) ([7]; test substance 200 μM): 114.6 ± 2.8 % of Control
inhibitory effects on CYP2D6 [8]: no inhibitory effects

CS(C)(=O)=O [MSM, methylsulfonylmethane]
adverse effects in clinical trials [3]: do not exhibit significant adverse effects
maximum plasma concentrations ([5]; common daily dose 2000 mg/day): ~1100 µM
inhibition or induction effects on CYPs (intrahepatic gene expressions) [9]: no significant inhibition or induction effects
Remaining Activities (% of Control, n = 3) ([10]; test substance 0.3 μM): 95.3 ± 2.9 % of Control
Remaining Activities (% of Control, n = 3) ([10]; test substance 1 μM): 98.5 ± 4.2 % of Control
Remaining Activities (% of Control, n = 3) ([10]; test substance 3 μM): 95.1 ± 3.5 % of Control
Remaining Activities (% of Control, n = 3) ([10]; test substance 10 μM): 98.0 ± 2.4 % of Control
Remaining Activities (% of Control, n = 3) ([10]; test substance 30 μM): 95.3 ± 1.7 % of Control
Remaining Activities (% of Control, n = 3) ([10]; test substance 100 μM): 90.8 ± 3.4 % of Control
Remaining Activities (% of Control, n = 3) ([10]; test substance 300 μM): 95.9 ± 4.2 % of Control
Remaining Activities (% of Control, n = 3) ([10]; test substance 1000 μM): 95.2 ± 0.5 % of Control
inhibitory effects on CYP1A2, CYP2A6, CYP2B6, CYP2C9, CYP2C19, CYP2D6, and CYP3A4 [6]: no inhibitory effects
Remaining Activities (% of Control, n = 3) ([7]; test substance 0.3 μM): 93.2 ± 13.2 % of Control
Remaining Activities (% of Control, n = 3) ([7]; test substance 1 μM): 97.8 ± 4.3 % of Control
Remaining Activities (% of Control, n = 3) ([7]; test substance 3 μM): 96.2 ± 4.3 % of Control
Remaining Activities (% of Control, n = 3) ([7]; test substance 10 μM): 96.8 ± 4.2 % of Control
Remaining Activities (% of Control, n = 3) ([7]; test substance 30 μM): 96.9 ± 7.2 % of Control
Remaining Activities (% of Control, n = 3) ([7]; test substance 100 μM): 96.7 ± 6.2 % of Control
Remaining Activities (% of Control, n = 3) ([7]; test substance 300 μM): 97.9 ± 4.4 % of Control
Remaining Activities (% of Control, n = 3) ([7]; test substance 1000 μM): 99.7 ± 4.1 % of Control

COc1cccc(C2(O)CCCCC2CN(C)C)c1 (centres unmarked) [Tramadol]
Metabolism-Associated CYPs [1]: CYP2D6 (major), CYP3A4, CYP2B6

Cc1ccc(-c2cc(C(F)(F)F)nn2-c2ccc(S(N)(=O)=O)cc2)cc1 [Celecoxib]
Metabolism-Associated CYPs [1]: CYP2C9 (major), CYP3A4

CC(=O)Nc1ccc(O)cc1 [Acetaminophen]
Metabolism-Associated CYPs [1]: CYP3A4 (major), CYP2El, CYP1A2, CYP2D6

CCOC(=O)C1(c2ccccc2)CCN(C)CC1 [Pethidine]
Metabolism-Associated CYPs [1]: CYP2B6 (major), CYP3A4 (major), CYP2C19

Cc1cnc(NC(=O)C2=C(O)c3ccccc3S(=O)(=O)N2C)s1 [Meloxicam]
Metabolism-Associated CYPs [1]: CYP2C9 (major), CYP3A4

CC(C)Cc1ccc(C(C)C(=O)O)cc1 (centres unmarked) [Ibuprofen]
Metabolism-Associated CYPs [1]: CYP2C8 (major) CYP2C9 (major), CYP2C19, CYP3A4
